Measurements taken from ChEMBL document CHEMBL5360620, “Diphenyl Ether Derivative Rhexocerins and Rhexocercosporins from the Endophytic Fungus Rhexocercosporidium sp. Dzf14 Active against Gram-Positive Bacteria with Multidrug-Resistance” (J Nat Prod, 2023).
Converted amounts (≈) assume the structure as drawn.

Columns and labels:
[1] = test system: HCT-8; assay: Cytotoxicity against human HCT-8 cells by MTT assay; type: toxicity, cell-based
[2] = test system: PANC-1; assay: Cytotoxicity against human PANC-1 cells by MTT assay; type: toxicity, cell-based
[3] = test system: HGC-27; assay: Cytotoxicity against human HGC-27 cells by MTT assay; type: toxicity, cell-based
[4] = test system: HepG2; assay: Cytotoxicity against human HepG2 cells by MTT assay; type: toxicity, cell-based
[5] = test system: PC-9; assay: Cytotoxicity against human PC-9 cells by MTT assay; type: toxicity, cell-based
[6] = test system: Escherichia coli; assay: Antibacterial activity against multi-drug resistant Escherichia coli B2 clinical isolate incubated for 18 hrs by broth microdilution method; type: functional
[7] = test system: Pseudomonas aeruginosa; assay: Antibacterial activity against wild-type Pseudomonas aeruginosa PAO1 incubated for 18 hrs by broth microdilution method; type: functional
[8] = test system: Staphylococcus aureus; assay: Antibacterial activity against methicillin-resistant Staphylococcus aureus T144 incubated for 18 hrs by broth microdilution method; type: functional
[9] = test system: Enterococcus faecalis; assay: Antibacterial activity against vancomycin-resistant Enterococcus faecalis 10 incubated for 18 hrs by broth microdilution method; type: functional

Q: What does the source list for `COC(=O)c1c(O)cc2c(c1C)[C@@H](C=C(C)C)C1=C(O2)C(=O)C(C)=CC1=O`?
A: Activity [1]: Non-Toxic; Activity [2]: Non-Toxic; Activity [3]: Non-Toxic; Activity [4]: Non-Toxic; Activity [5]: Non-Toxic; MIC [6]: > 32 µg/mL; MIC [7]: > 32 µg/mL; MIC [8]: > 32 µg/mL; MIC [9]: 8 µg/mL (≈ 21.7 µM)

Q: `CN[C@H](CC(C)C)C(=O)N[C@H]1C(=O)N[C@@H](CC(N)=O)C(=O)N[C@H]2C(=O)N[C@H]3C(=O)N[C@H](C(=O)N[C@H](C(=O)O)c4cc(O)cc(O)c4-c4cc3ccc4O)[C@H](O)c3ccc(c(Cl)c3)Oc3cc2cc(c3O[C@@H]2O[C@H](CO)[C@@H](O)[C@H](O)[C@H]2O[C@H]2C[C@](C)(N)[C@H](O)[C@H](C)O2)Oc2ccc(cc2Cl)[C@H]1O` [VANCOMYCIN] was tested. Which MIC [9] did it give?
A: The MIC was over 128 µg/mL.

Q: For `COC(=O)c1c(OC)cc2c(c1C)[C@@H](C=C(C)C)c1c(O)cc(C)c(OC)c1O2`, which Activity [1] is on record?
A: Its Activity is “Non-Toxic”.

Q: And the Activity [2]?
A: Its Activity is “Non-Toxic”.

Q: What about the Activity [3] of the same compound?
A: Its Activity is “Non-Toxic”.

Q: And the Activity [4]?
A: Its Activity is “Non-Toxic”.

Q: And the Activity [5]?
A: The Activity was “Non-Toxic”.

Q: `CC(C)=C[C@H]1c2c(O)cc(C)cc2Oc2cc(O)c(C(=O)O)c(C)c21` was tested. Which Activity [1] did it give?
A: The Activity was “Non-Toxic”.

Q: And the Activity [2]?
A: The Activity was “Non-Toxic”.

Q: And the Activity [3]?
A: Its Activity is “Non-Toxic”.

Q: What about the Activity [4] of the same compound?
A: The Activity was “Non-Toxic”.

Q: And the Activity [5]?
A: Its Activity is “Non-Toxic”.

Q: What about the MIC [6] of the same compound?
A: Its MIC is over 32 µg/mL.

Q: What about the MIC [7] of the same compound?
A: Its MIC is over 32 µg/mL.

Q: What about the MIC [8] of the same compound?
A: The MIC was 16 µg/mL (≈ 47 µM).

Q: What about the MIC [9] of the same compound?
A: Its MIC is 16 µg/mL (≈ 47 µM).

Q: With `COC(=O)c1c(O)cc2c(c1C)[C@@H](C=C(C)C)c1c(O)cc(C)cc1O2` as the compound, how does the Activity [1] read?
A: The Activity was “Non-Toxic”.

Q: What about the Activity [2] of the same compound?
A: Its Activity is “Non-Toxic”.

Q: What about the Activity [3] of the same compound?
A: Its Activity is “Non-Toxic”.

Q: And the Activity [4]?
A: Its Activity is “Non-Toxic”.

Q: And the Activity [5]?
A: The Activity was “Non-Toxic”.

Q: And the MIC [6]?
A: Its MIC is over 32 µg/mL.

Q: What about the MIC [7] of the same compound?
A: The MIC was over 32 µg/mL.

Q: What about the MIC [8] of the same compound?
A: Its MIC is 16 µg/mL (≈ 45.1 µM).

Q: What about the MIC [9] of the same compound?
A: The MIC was 8 µg/mL (≈ 22.6 µM).

Q: How did the Activity [1] turn out when `COC(=O)c1c(O)cc2c(c1C)C=C1c3c(cc(C)c(O)c3O2)OC1(C)C` was run?
A: The Activity was “Non-Toxic”.

Q: And the Activity [2]?
A: Its Activity is “Non-Toxic”.

Q: What about the Activity [3] of the same compound?
A: The Activity was “Non-Toxic”.

Q: What about the Activity [4] of the same compound?
A: Its Activity is “Non-Toxic”.

Q: And the Activity [5]?
A: Its Activity is “Non-Toxic”.

Q: What about the MIC [6] of the same compound?
A: Its MIC is over 32 µg/mL.

Q: What about the MIC [7] of the same compound?
A: The MIC was over 32 µg/mL.

Q: And the MIC [8]?
A: The MIC was 16 µg/mL (≈ 43.4 µM).

Q: What about the MIC [9] of the same compound?
A: Its MIC is 16 µg/mL (≈ 43.4 µM).

Q: What does the source list for `COC(=O)c1c(OC)cc2c(c1C)[C@@H](C=C(C)C)c1c(O)cc(C)cc1O2`?
A: Activity [1]: Non-Toxic; Activity [2]: Non-Toxic; Activity [3]: Non-Toxic; Activity [4]: Non-Toxic; Activity [5]: Non-Toxic; MIC [6]: > 32 µg/mL; MIC [7]: > 32 µg/mL; MIC [8]: 4 µg/mL (≈ 10.9 µM); MIC [9]: 4 µg/mL (≈ 10.9 µM)

Q: Which results are given for `COC(=O)c1c(OC)cc2c(c1C)C=C1c3c(cc(C)c(O)c3O2)OC1(C)C`?
A: Activity [1]: Non-Toxic; Activity [2]: Non-Toxic; Activity [3]: Non-Toxic; Activity [4]: Non-Toxic; Activity [5]: Non-Toxic

Q: What does the source list for `COC(=O)c1c(OC)cc2c(c1C)[C@@H](C=C(C)C)C1=C(O2)C(=O)C(C)=CC1=O`?
A: Activity [1]: Non-Toxic; Activity [2]: Non-Toxic; Activity [3]: Non-Toxic; Activity [4]: Non-Toxic; Activity [5]: Non-Toxic; MIC [6]: > 32 µg/mL; MIC [7]: > 32 µg/mL; MIC [8]: 32 µg/mL (≈ 83.7 µM); MIC [9]: 8 µg/mL (≈ 20.9 µM)

Q: `COC(=O)c1c(OC)cc2c(c1C)[C@H](OC)[C@H]1c3c(cc(C)c(O)c3O2)OC1(C)C` was tested. Which Activity [1] did it give?
A: Its Activity is “Non-Toxic”.

Q: And the Activity [2]?
A: Its Activity is “Non-Toxic”.

Q: And the Activity [3]?
A: The Activity was “Non-Toxic”.

Q: And the Activity [4]?
A: Its Activity is “Non-Toxic”.

Q: What about the Activity [5] of the same compound?
A: Its Activity is “Non-Toxic”.

Q: How did the MIC [6] turn out when COLISTIN was run?
A: The MIC was 2 µg/mL.

Q: What about the MIC [7] of the same compound?
A: The MIC was 0.13 µg/mL.

Q: What does the source list for `COC(=O)c1c(OC)cc2c(c1C)[C@H](O)[C@H]1c3c(cc(C)c(O)c3O2)OC1(C)C`?
A: Activity [1]: Non-Toxic; Activity [2]: Non-Toxic; Activity [3]: Non-Toxic; Activity [4]: Non-Toxic; Activity [5]: Non-Toxic
